The test system of data set [1] is human umbilical vascular endothelial cells (HUVEC). In words: CCK-8 cell growth analysis in vascular endothelial cells. The format is cell-based. The procedure:
Each cell was treated in a serum-free culture solution containing 0.5 μM doxorubicin for 4 hours. After washing the cells with a serum-free culture solution, the cells were cultured for 4 days in a culture solution containing 10% FBS, and then cellular aging was confirmed by staining with senescence-associated beta galactosidase (SAβG). After dispensing 2×10^5 cells in a 100 mm culture dish, they were cultured in a 37° C., 5% CO2 incubator. When the cells grew to 80-90% in the culture dish, the cells were removed by treatment with trypsin-EDTA, and the number of cells was measured, and the cell population doubling time (PDT) was measured. After each sample was dissolved in DMSO, young cells, replicative senescent cells, and premature senescent cells treated with doxorubicin were treated with 100 nM zotarolimus, 100 nM rapamycin, 100 nM ABT263, respectively. […] Then, the absorbance was measured at 450 nm using a microplate reader. The degree of cell growth was expressed as a relative value for the absorbance of the control group treated with only DMSO as 100%. […]

Data set [2] concerns pulmonary fibrosis induced by bleomycin. Put plainly: Lung fibrosis induced by bleomycin in mice. In kind it is in vivo, C57BL/6J mice. The procedure:
Animal experiments were conducted with the approval of the Animal Experimental Ethics Committee, Yeungnam University College of Medicine (YUMC-AEC2018-025). After anesthetizing by injecting 2.5% avertin (Avertin; 0.025 ml/g) into the abdominal cavity of 10-week-old C57BL/6J male mice, 2 mU/g of bleomycin was instilled into the bronchi and injected into the lungs.
From 5 days after bleomycin administration, 2.5 μl of 10 mM zotarolimus was diluted in 100 μl phosphate buffer solution at intervals of 3 days and injected intraperitoneally 6 times (Zota group).
Three mice were used for each group, and lungs were excised by sacrifice 22 days after bleomycin injection and fixed in 10% formalin solution or stored frozen in liquid nitrogen.
The tissue fixed in 10% formalin solution was embedded with paraffin and cut into 4 μm to prepare a tissue sample. After removing paraffin from the tissue sample, hematoxylin-eosin staining, trichrome staining, and PAS staining were performed.
The degree of fibrosis was measured by analyzing the degree of collagen staining using the i-Solution™ software program (IMT Inc., Canada) after trichrome staining and the degree of cell senescence in tissue samples was investigated by staining lipofuscin with Sudan black B (Viegas M S, et al., European journal of histochemistry: EJH. 2007). The degree of peritoneal fibrosis was confirmed by measuring the submesothelial thickness of the peritoneal mesothelial cell layer using the NIH Image J program.

Data set [3] concerns human umbilical vascular endothelial cells (HUVEC). Put plainly: SAβG activity staining in senescent vascular endothelial cells. In kind it is cell-based. Conditions: 4 days. The procedure: Each cell was treated in a serum-free culture solution containing 0.5 μM doxorubicin for 4 hours. After washing the cells with a serum-free culture solution, the cells were cultured for 4 days in a culture solution containing 10% FBS, and then cellular aging was confirmed by staining with senescence-associated beta galactosidase (SAβG). After dispensing 2×10^5 cells in a 100 mm culture dish, they were cultured in a 37° C., 5% CO2 incubator. When the cells grew to 80-90% in the culture dish, the cells were removed by treatment with trypsin-EDTA, and the number of cells was measured, and the cell population doubling time (PDT) was measured. By successively subculturing the cells in the same process as described above, replication aging was induced. PDT of young fibroblasts was 36 hours, PDT of replicative senescent fibroblasts was 12 days, PDT of young vascular endothelial cells was 24 hours, and PDT of replicative senescent vascular endothelial cells was 7 days. After each sample was dissolved in DMSO, young cells, replicative senescent cells, and premature senescent cells treated with doxorubicin were treated with 100 nM zotarolimus, 100 nM rapamycin, 100 nM ABT263, respectively. After incubation for 4 days in a 37° C., 5% CO2 incubator, the degree of cell growth was confirmed by CCK-8 analysis, the degree of cellular aging was confirmed by senescence-related beta-galactosidase (SAβG) staining, The cells were washed with 1× phosphate buffer solution, and fixed with a phosphate buffer solution containing 3.7% (v/v) paraformaldehyde. After adding 1 mg/ml 5-bromo-4-chloro-3-indolyl-6-D-galactoside, 40 mM citric acid-sodium phosphate (pH 6.0), 5 mM potassium ferricyanide, 5 mM potassium ferrocyanide, 150 mM NaCl, and 2 mM MgCl2 solution, it was reacted at 37° C. for 18 hours. It was stained with eosin as a control stain. Cells stained blue in the cytoplasm were identified using an optical microscope. […]

[4] abbreviates: i.p. 6 times at 3-day intervals from day 5, vs PBS group.

SMILES strings stand for the structures.

The text below walks through data of patent US20220023271A1, “COMPOSITION FOR PREVENTING OR TREATING CELLULAR SENESCENCE-RELATED DISEASES COMPRISING ZOTAROLIMUS AS ACTIVE INGREDIENT” (RESEARCH COOPERATION FOUNDATION OF YEUNGNAM UNIVERSITY, priority 2018, published 2022).

On to `CO[C@H]1C[C@@H]2CC[C@@H](C)[C@@](O)(O2)C(=O)C(=O)N2CCCC[C@H]2C(=O)O[C@H]([C@H](C)C[C@@H]2CC[C@H](n3cnnn3)[C@H](OC)C2)CC(=O)[C@H](C)/C=C(\C)[C@@H](O)[C@@H](OC)C(=O)[C@H](C)C[C@H](C)/C=C/C=C/C=C/1C` [zotarolimus], for which, in data set [1] (premature senescent HUVEC by doxorubicin, 100 nM, 4 days, vs DMSO, p<0.01), the “cell growth (CCK-8)” value is “significantly reduced”. Further, in data set [1] (young vs replicative senescent HUVEC), the “cell growth with increasing concentration of zotarolimus” value was “decreased compared to the young cells in a concentration-dependent manner”. Besides, the weight gain entry in data set [2] (before induction vs 20th day, vs NT group) was “significantly decreased”. For the same compound, in data set [2] (setting [4]), the “degree of lung fibrosis (trichrome staining)” value was “statistically significantly reduced” and the “degree of lung tissue damage (hematoxylin-eosin staining)” value is reported as “statistically significantly reduced”. Further, the weight entry in data set [2] (vs PBS group) is given as “further increased compared to that of the PBS group”. Further, in data set [3] (premature senescent HUVEC by doxorubicin, 100 nM each), the “SAβG activity staining compared with rapamycin” value is given as “significantly decreased than rapamycin”. For the same compound, the SAβG activity staining result in data set [3] (premature senescent HUVEC by doxorubicin, 100 nM, vs DMSO-treated group, p<0.01) is listed as “significantly decreased”. Moreover, in data set [3] (replicative senescent HUVEC, 100 nM, vs DMSO-treated group and rapamycin-treated group), the SAβG activity entry is reported as “significantly decreased”.
